Measured values reported in patent US20250136555A1 (HARBIN MEDISAN PHARMACEUTICAL CO., LTD., priority 2022, published 2025).
Like-named read-outs stand apart in the source and are kept apart here.

What was measured:
Type in all cases: cell-based
PPARγ = target: T1, PPARγ (Homo sapiens, UniProt P37231); experiment: GAL4 hybrid reporter gene method, PPARγ agonistic activity
T1 construct: expressed in transfected cells; host or cells: COS-7
T1 sequence (P37231 238-503 limits assumed): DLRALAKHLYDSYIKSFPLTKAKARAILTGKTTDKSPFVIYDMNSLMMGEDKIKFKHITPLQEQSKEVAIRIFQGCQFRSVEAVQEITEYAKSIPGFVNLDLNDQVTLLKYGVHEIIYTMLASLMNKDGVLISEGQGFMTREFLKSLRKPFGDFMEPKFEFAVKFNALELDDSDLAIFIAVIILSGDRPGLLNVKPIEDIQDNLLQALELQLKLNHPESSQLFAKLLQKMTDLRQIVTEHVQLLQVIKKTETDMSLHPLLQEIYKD
Procedure: (§1) Cos-7 cells (African green monkey kidney fibroblasts, commonly used tool cells) were cultured in a 10-cm cell culture dish with a DMEM complete medium containing 10% fetal bovine serum. When growing at a density of about 70%, the cells were ready for transfection. […] The working solution described above was then combined with 8 mL of the DMEM complete medium, and the mixture was added to the cell culture dish for cell transfection. After 4 h of transfection, the cells were digested, resuspended, and seeded into a 96-well plate at 25,000 cells/well. […] 10 μL of a reporter gene detection solution (purchased from Shanghai Beyotime Biological Tech. Co., Ltd.) was added. After the resulting solution was mixed and reacted, biological fluorescence was detected by using a multifunctional microplate reader, and corresponding half maximal effective concentration (EC50) values were calculated according to the detection values. […] Transfection working solutions for different nuclear receptors were prepared and added into COS-7 cells. The preparation method for the transfection working solution was as follows: the constructed pBIND-Gal4-PPARα (LBD) (or pBIND-Gal4-PPARδ (LBD) plasmid or pBIND-Gal4-PPARγ (LBD) plasmid or pBIND-Gal4-RARα (LBD) plasmid or pBIND-Gal4-RARγ (LBD) plasmid or pBIND-Gal4-RARβ (LBD) plasmid or pBIND-Gal4-RORα (LBD) plasmid or pBIND-Gal4-RORγ (LBD) plasmid or pBIND-Gal4-RORβ (LBD) plasmid or pBIND-Gal4-FXR (LBD) plasmid or pBIND-Gal4-RXRα.

PPARδ = target: T2, PPARδ (Homo sapiens, UniProt Q03181); experiment: GAL4 hybrid reporter gene method, PPARδ agonistic activity
T2 construct: expressed in transfected cells; host or cells: COS-7
T2 sequence (Q03181 211-439 limits assumed): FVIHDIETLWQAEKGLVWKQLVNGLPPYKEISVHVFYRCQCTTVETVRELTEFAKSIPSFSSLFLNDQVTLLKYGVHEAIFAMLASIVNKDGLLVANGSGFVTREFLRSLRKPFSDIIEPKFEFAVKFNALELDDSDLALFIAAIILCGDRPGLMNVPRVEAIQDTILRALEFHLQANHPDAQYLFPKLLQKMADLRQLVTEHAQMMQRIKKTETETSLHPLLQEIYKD
Procedure: as §1

PPARα = target: T3, PPARα (Homo sapiens, UniProt Q07869); experiment: GAL4 hybrid reporter gene method, PPARα agonistic activity; conditions: Cos-7 cells, Gal4-PPARα (LBD); GW7647 10 nM = 100%; 16 h
T3 construct: expressed in transfected cells; host or cells: COS-7
T3 sequence (Q07869 239-466 limits assumed): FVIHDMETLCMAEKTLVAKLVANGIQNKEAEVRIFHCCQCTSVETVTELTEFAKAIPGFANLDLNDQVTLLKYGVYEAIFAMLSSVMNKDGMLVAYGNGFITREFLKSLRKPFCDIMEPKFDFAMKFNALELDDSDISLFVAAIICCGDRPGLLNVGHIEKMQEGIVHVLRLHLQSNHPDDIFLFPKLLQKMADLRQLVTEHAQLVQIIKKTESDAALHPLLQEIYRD
Procedure: as §1

[1] = Cos-7 cells, Gal4-PPARγ (LBD), Rosiglitazone 1 μM = 100%, 16 h
[2] = Cos-7 cells, Gal4-PPARδ (LBD), GW501516 10 nM = 100%, 16 h

Compound	EC50 (PPARγ; [1])	EC50 (PPARδ; [2])	EC50 (PPARα)	EC50 (PPARγ)	EC50 (PPARδ)	PPARδ EC50 (nM) (PPARδ; [2])	PPARα EC50 (nM) (PPARα)
Cc1cc(CN2C(=O)CN(Cc3ccc(C(F)(F)F)cc3)C2=O)cc(C)c1OC(C)(C)C(=O)O [Compound 93]	1490 nM						
CC(C)(Oc1ccc(CN2C(=O)CN(c3ccc(C(F)(F)F)cc3)C2=O)cc1Br)C(=O)O [Compound 77, 2-(2-Bromo-4-((2,5-dioxo-3-(4-trifluoromethyl)phenyl)imidazolidin-1-yl)methylphenoxy)-2-methylpropionic Acid]			74.1 nM	3190 nM	25.3 nM		
CC(C)(Oc1ccc(CN2C(=O)CN(c3ccc(C(F)(F)F)cc3)C2=O)cc1C(F)(F)F)C(=O)O [Compound 11, 2-(4-((2,5-Dioxo-3-(4-(trifluoromethyl)phenyl)imidazolidin-1-yl)methyl)-2-(trifluoromethyl)phenoxy)-2-methylpropionic Acid]			77.1 nM	2480 nM	33.1 nM		
CC(C)(Oc1ccc(CN2C(=O)CN(c3ccc(C(F)(F)F)cc3)C2=O)cc1OC(F)(F)F)C(=O)O [Compound 55, 2-(4-((2,5-Dioxo-3-(4-(trifluoromethyl)phenyl)imidazolin-1-yl)methyl)-2-(trifluoromethoxy)phenoxy)-2-methylpropionic Acid]			82.1 nM	2960 nM	24 nM		
CC(C)(Oc1ccc(CN2C(=O)CN(c3ccc(C(F)(F)F)cc3)C2=O)cc1Cl)C(=O)O [Compound 51, 2-(4-((2,5-Dioxo-3-(4-(trifluoromethyl)phenyl)imidazolin-1-yl)methyl)-2-chlorophenoxy)-2-methylpropionic Acid]			89.9 nM	> 5000 nM	40.1 nM		
CC(C)(Oc1c(F)cc(CN2C(=O)CN(c3ccc(C(F)(F)F)cc3)C2=O)cc1Cl)C(=O)O [Compound 47, 2-(2-Chloro-4-((2,5-dioxo-3-(4-(trifluoromethyl)phenyl)imidazolin-1-yl)methyl)-6-fluorophenoxy)-2-methylpropionic Acid]			9.9 nM	> 5000 nM	19 nM		
Cc1cc(CN2C(=O)CN(c3ccc(C(F)(F)F)cc3)C2=O)ccc1OC(C)(C)C(=O)O [Compound 57, 2-(4-((2,5-Dioxo-3-(4-(trifluoromethyl)phenyl)imidazolin-1-yl)methyl)-2-(methyl)phenoxy)-2-methylpropionic Acid]	2720 nM	19.2 nM	46.7 nM				
CC(C)(Oc1c(Br)cc(CN2C(=O)CN(c3ccc(C(F)(F)F)cc3)C2=O)cc1Br)C(=O)O [Compound 19, 2-(2,6-Dibromo-4-((2,5-dioxo-3-(4-(trifluoromethyl)phenyl)imidazolidin-1-yl)methyl)phenoxy)-2-methylpropionic Acid]		23.6 nM	2.2 nM				
Cc1cc(CN2C(=O)N(c3ccc(C(F)(F)F)cc3)C(C)(C)C2=O)cc(C)c1OC(C)(C)C(=O)O [Compound 5, 2-(4-((4,4-Dimethyl-2,5-dioxo-3-(4-(trifluoromethyl)phenyl)imidazolin-1-yl)methyl)-2,6-dimethylphenoxy)-2-methylpropionic Acid]		60 nM	252 nM				
Cc1cc(CN2C(=O)N(c3ccc(OC(F)(F)F)cc3)C(C)(C)C2=O)cc(C)c1OC(C)(C)C(=O)O [Compound 7]			668 nM		176 nM		
CC(C)(Oc1c(Cl)cc(CN2C(=O)CN(c3ccc(C(F)(F)F)cc3)C2=O)cc1Cl)C(=O)O [Compound 17, 2-(2,6-Dichloro-4-((2,5-dioxo-3-(4-(trifluoromethyl)phenyl)imidazolidin-1-yl)methyl)phenoxy)-2-methylpropionic Acid]		24.8 nM					

More lines, now with the values ahead:

EC50 (PPARγ; [1])	EC50 (PPARδ; [2])	EC50 (PPARα)	EC50 (PPARγ)	EC50 (PPARδ)	PPARδ EC50 (nM) (PPARδ; [2])	PPARα EC50 (nM) (PPARα)	Compound
3370 nM	36.1 nM	18.8 nM					COc1ccc(N2CC(=O)N(Cc3cc(C)c(OC(C)(C)C(=O)O)c(C)c3)C2=O)cc1 [Compound 39, 2-(4-((3-(4-Methoxyphenyl)-2,5-dioxoimidazolin-1-yl)methyl)-2,6-dimethylphenoxy)-2-methylpropionic Acid]
		21.9 nM	165 nM	40.5 nM			Cc1cc(CN2C(=O)CN(c3ccc(F)c(Cl)c3)C2=O)cc(C)c1OC(C)(C)C(=O)O [Compound 105]
		1090 nM	> 5000 nM	> 5000 nM			Cc1cc(CN2C(=O)CN(c3ccc(S(C)(=O)=O)cc3)C2=O)cc(C)c1OC(C)(C)C(=O)O [Compound 71, 2-(2,6-Dimethyl-4-((3-(4-(methylsulfonyl)phenyl)-2,5-dioxoimidazolin-1-yl)methyl)phenoxy)-2-methylpropionic Acid]
4060 nM	84.4 nM	98.1 nM					Cc1cc(CN2C(=O)CN(c3ccc(C#N)cc3)C2=O)cc(C)c1OC(C)(C)C(=O)O [Compound 37, 2-(4-((3-(4-Cyanobenzene)-2,5-dioxoimidazolin-1-yl)methyl)-2,6-dimethylphenoxy)-2-methylpropionic Acid]
		10.9 nM	1330 nM	66.9 nM			CCOc1ccc(N2CC(=O)N(Cc3cc(C)c(OC(C)(C)C(=O)O)c(C)c3)C2=O)cc1 [Compound 95]
	82.1 nM	165 nM	> 5000 nM				Cc1cc(CN2CC(=O)N(c3ccc(C(F)(F)F)cc3)C2=O)cc(C)c1OC(C)(C)C(=O)O [Compound 81, 2-(4-((2,4-Dioxo-3-(4-(trifluoromethyl)phenyl)imidazolidin-1-yl)methyl)-2,6-dimethylphenoxy)-2-methylpropionic Acid]
	0.8 nM	2.1 nM					Cc1cc(CN2C(=O)CN(c3ccc(C(F)(F)F)c(F)c3)C2=O)cc(C)c1OC(C)(C)C(=O)O [Compound 31, 2-(2,6-Dimethyl-4-((3-(3-fluoro-4-(trifluoromethyl)phenyl)-2,5-dioxoimidazolin-1-yl)methyl)phenoxy)-2-methylpropionic Acid]
	4.4 nM	17.9 nM	2720 nM				Cc1cc(CCN2C(=O)CN(c3ccc(C(F)(F)F)cc3)C2=O)cc(C)c1OC(C)(C)C(=O)O [Compound 85, 2-(4-(2-(2,5-Dioxo-3-(4-(trifluoromethyl)phenyl)imidazolidin-1-yl)ethyl)-2,6-dimethylphenoxy)-2-methylpropionic Acid]
		1 nM	313 nM	10.2 nM	low nanomolar levels	low nanomolar levels	Cc1cc(CN2C(=O)CN(c3ccc(C4CC4)cc3)C2=O)cc(C)c1OC(C)(C)C(=O)O [Compound 101]
1420 nM		17 nM					Cc1cc(CN2C(=O)CN(c3ccc(Cl)cc3)C2=O)cc(C)c1OC(C)(C)C(=O)O [Compound 27, 2-(4-((3-(4-Chlorophenyl)-2,5-dioxoimidazolin-1-yl)methyl)-2,6-dimethylphenoxy)-2-methylpropionic Acid]
1200 nM		3.9 nM				low nanomolar levels	Cc1cc(CN2C(=O)CN(c3ccc(Br)cc3)C2=O)cc(C)c1OC(C)(C)C(=O)O [Compound 61, 2-(4-((3-(4-Bromophenyl)-2,5-dioxoimidazolin-1-yl)methyl)-2,6-dimethylphenoxy)-2-methylpropionic Acid]
		25.1 nM		4 nM			Cc1cc(CN2C(=O)CN(c3ccc(C(F)(F)F)cc3)C2=O)cc(C)c1OC(C)C(=O)O (stereo not drawn) [Compound 63, 2-(4-((2,5-Dioxo-3-(4-(trifluoromethyl)phenyl)imidazolin-1-yl)methyl)-2,6-dimethylphenoxy)propionic Acid]
971 nM		0.8 nM					Cc1cc(CN2C(=O)CN(c3ccc(C(C)C)cc3)C2=O)cc(C)c1OC(C)(C)C(=O)O [Compound 65, 2-(4-((3-(4-Isopropylphenyl)-2,5-dioxoimidazolin-1-yl)methyl)-2,6-dimethylphenoxy)-2-methylpropionic Acid]
					low nanomolar levels	low nanomolar levels	CSc1ccc(N2CC(=O)N(Cc3cc(C)c(OC(C)(C)C(=O)O)c(C)c3)C2=O)cc1 [Compound 43]
	4.4 nM		4150 nM		low nanomolar levels		Cc1cc(CN2C(=O)CN(c3ccc(OC(F)(F)F)cc3)C2=O)cc(C)c1OC(C)(C)C(=O)O [Compound 3, 2-(4-((2,5-Dioxo-3-(4-(trifluoromethoxy)phenyl)imidazolidin-1-yl)methyl)-2,6-dimethylphenoxy)-2-methylpropionic Acid]
	6.3 nM	1 nM			low nanomolar levels	low nanomolar levels	CCc1ccc(N2CC(=O)N(Cc3cc(C)c(OC(C)(C)C(=O)O)c(C)c3)C2=O)cc1 [Compound 75, 2-(4-(3-(4-Ethylphenyl)-2,5-dioxoimidazolidin-1-yl)methyl)-2,6-dimethylphenoxy-2-methylpropionic Acid]
